Assay results from patent US20120270945A1, “METHOD FOR MODULATING CYTOKINE ACTIVITY” (SUCAMPO AG, priority 2011, published 2012).

What was measured:
IL-6 = IL-6 mRNA expression in intestinal tissue of DSS-induced ulcerative colitis rats (real-time PCR); assay type: in vivo, rat
Procedure: (§1) Male LEW/SsN rats were given free access to 3% dextran sulfate sodium (DSS) in drinking water to induce ulcerative colitis. (−)-7-{(2R,4aR,5R,/aR)-2-[(3S)-1,1-difluoro-3-methylpentyl]-2-hydroxy-6-oxooctahydrocyclopenta[b]pyran-5-yl}heptanoic acid (Compound A) was orally administered to the animals twice a day for 10 days. The same amount of the vehicle was administered to control animals. At the 10 days after start of 3% DSS drinking, animals were sacrificed and intestinal tissues were excised. The mRNA expressions of IL-12, IL-1beta, IL-6, and TNF-alpha in the intestinal tissues were measured by real-time polymerase chain reaction technique.
(§2) Each value is relative to the reference gene (GAPDH) level. Data are represented as mean (Arbitrary unit) from 3 to 4 animals.

IL-12 = IL-12 mRNA expression in intestinal tissue of DSS-induced ulcerative colitis rats (real-time PCR); assay type: in vivo, rat
Procedure: as §1, §2

TNF-alpha = TNF-alpha mRNA expression in intestinal tissue of DSS-induced ulcerative colitis rats (real-time PCR); assay type: in vivo, rat
Procedure: as §1, §2

[1] = Incidence of esophagitis in patients who take NSAIDs (naproxen); assay type: in vivo, human; details: patients on 500 mg naproxen twice a day
Procedure: Patients who take NSAIDs were randomized to one of four treatment groups. All patients received 500 mg of naproxen twice a day. One group received placebo while the other three groups received 18, 36 or 54 mcg of Compound A, respectively, for 12 weeks. The incidence of esophagitis was 10.0%, 6.5% or 6.5% for the groups received 18, 36 or 54 mcg of Compound A, respectively, while it was 20.0% for the group received placebo.

IL-1beta = IL-1beta mRNA expression in intestinal tissue of DSS-induced ulcerative colitis rats (real-time PCR); assay type: in vivo, rat
Procedure: as §1, §2

SOCS-1 = SOCS-1 expression in colon of DSS-induced colitis model mice (real-time PCR); assay type: in vivo, mouse; details: C57/B6J mice, 2% DSS for 7 days, 10 μM solution orally once daily for 7 days, GAPDH as reference
Procedure: The experimental model used C57/B6J mice (7-8 weeks old). Colitis was induced by administration of 2% dextran sulfate sodium (DSS) in drinking water for 7 days. Ten (10) μM solution of Compound B ((−)-7-[(2R,4aR,5R,7aR)-2-(1,1-difluoropentyl)-2-hydroxy-6-oxooctahydrocyclopenta[b]pyran-5-yl]heptanoic acid) was administered orally once daily for 7 days from the day of starting DSS treatment. One day after last administration, animals were sacrificed and colons were excised. After extraction of mRNA from colon tissues, real-time PCR analysis of SOCS-1 was conducted using house-keeping gene GAPDH as a reference.

[2] = DSS-induced ulcerative colitis model rats, versus vehicle control
[3] = male LEW/SsN rats, 3% DSS drinking water, oral twice a day for 10 days, intestinal tissue, mean from 3 to 4 animals

| SMILES | effect on expression of IL-6 increased by DSS (in words) (IL-6; [2]) | expression of IL-6 (mRNA, relative to GAPDH) (IL-6; [3]) [Arbitrary unit] | effect on expression of IL-12 increased by DSS (in words) (IL-12; [2]) | expression of IL-12 (mRNA, relative to GAPDH) (IL-12; [3]) [Arbitrary unit] | effect on expression of TNF-alpha increased by DSS (in words) (TNF-alpha; [2]) | expression of TNF-alpha (mRNA, relative to GAPDH) (TNF-alpha; [3]) [Arbitrary unit] | incidence of esophagitis ([1]; 18 mcg for 12 weeks (placebo 20.0%)) [%] | incidence of esophagitis ([1]; 36 mcg for 12 weeks (placebo 20.0%)) [%] | incidence of esophagitis ([1]; 54 mcg for 12 weeks (placebo 20.0%)) [%] | effect on expression of IL-1beta increased by DSS (in words) (IL-1beta; [2]) | expression of IL-1beta (mRNA, relative to GAPDH) (IL-1beta; [3]) [Arbitrary unit] | effect on overexpression of SOCS-1 gene (in words) (SOCS-1) |
| --- | --- | --- | --- | --- | --- | --- | --- | --- | --- | --- | --- | --- |
| CC[C@H](C)CC(F)(F)[C@@]1(O)CC[C@H]2[C@@H](CC(=O)[C@@H]2CCCCCCC(=O)O)O1 [Compound A, (−)-7-{(2R,4aR,5R,/aR)-2-[(3S)-1,1-difluoro-3-methylpentyl]-2-hydroxy-6-oxooctahydrocyclopenta[b]pyran-5-yl}heptanoic acid] | reduced | 49.25 | reduced | 0.99 | reduced | 4.68 | 10.0 | 6.5 | 6.5 | reduced | 54.83 |  |
| CCCCC(F)(F)[C@@]1(O)CC[C@H]2[C@@H](CC(=O)[C@@H]2CCCCCCC(=O)O)O1 [Compound B, (−)-7-[(2R,4aR,5R,7aR)-2-(1,1-difluoropentyl)-2-hydroxy-6-oxooctahydrocyclopenta[b]pyran-5-yl]heptanoic acid] |  |  |  |  |  |  |  |  |  |  |  | reduced |
